A word on the inhibition: it is the relative decrease from the control value, in per cent.

The subject of one assay is caspase-3. Description: Caspase-3 colorimetric assay in MOLT-4 cells. It is filed as cell-based, Human. As to conditions: 5 µg/ml, 12 hrs. As to the method:
Caspase 3 activity was measured by using caspase-3 colorimetric Assay kit (R&D Systems USA). […] Cell lysates were mixed with 10µL of dithiothreitol (DTT) and 50µL reaction buffer (2X) containing 5 µL DEVD-pNA, a caspase-3 substrate, and incubated upto 24 hr at 37°C. Additional controls were included in this assay containing no cell lysate without substrate Enzyme-catalyzed release of pNA was monitored using a microplate reader at 405 nm (Fig. 2). Likewise, Caspase 6 activity was also measured using caspase-6 colorimetric Assay kit (R&D Systems USA). However, the enzyme and enzyme substrate (VEID-pNA) were different (Fig. 3). Treatment of the cells with Compound 3f induced caspase-3/6 activities. […] (Fig 2).

Another assay concerns HL-60 cells. As to the kind of experiment: Annexin V-FITC/PI flow cytometric analysis of apoptosis. The assay is classed as cell-based, human. The note with it: 24 h. As to the method:
Induction of apoptosis in vitro by Compound 3b and 3f was further determined in HL-60 cells by flow cytometric assay using an Annexin V-FITC Apoptosis Detection Kit (BD Biosciences Pharmingen, San Diego, USA). Camptothecin was included in the study for comparison. Exponentially growing HL-60 cells in complete RPMI-1640 media (100 µl of 5×10^6) were plated in six well plates. 10 µl of each Compound in DMSO (5 and 10 µM concentrations) was added to the wells followed by the addition of required media (total volume 1ml). Plates were incubated at 37°C for 24 h. The cells were centrifuged at room temperature at 1500 rpm for 5 min. The pellet was washed twice with cold PBS and was re-suspended in the binding buffer (1X, 100µl) provided in the Kit. The cells were stained with Annexin V-FITC (5 µl) and Propidium Iodide [PI] (5µl) and incubated for 15 min in the dark at 25°C. Next 400µl of binding buffer was added to each tube and analyzed on a FACScan flow cytometer (Becton Dickinson, Mountainview, CA) using Cell Quest software. Cells stained with both Annexin-V-FITC and PI, containing DMSO as vehicle was used as stained control. Cells that were annexin^+ /Pr [Lower right quadrant (LR)] and annexin^+/PI^+ [Upper right quadrant (UR)] were considered as early apoptotic and late apoptotic respectively.
A general note: Flow cytometry measures light scatter and fluorescence of single cells or particles in a stream.

In assay [1] the test system is Ehrlich ascites carcinoma (EAC). As to the kind of experiment: In vivo anticancer activity: increase in median survival time. Details: species or system Swiss albino male mice. The note with it: 60 mg/kg i.p., 7 injns., days 1-7.
The test system of the next assay is S-180. Description: In vivo tumor growth inhibition study. Also noted: species or system mice. The source says: Compound 3f was selected for tumor growth inhibition study. 18 mice each were taken for treated and control groups and inoculated with 1 x 10^6 S-180 cells. After sacrificing mice from the respective groups sequentially on days 9, 14 and 19 following drug treatment on day 1-7 at doses indicated, the ascites fluid from peritoneal cavities of animals were quantitatively transferred and the peritoneal cavities were washed with measured volume of physiological saline. The total number of tumor cells were counted and ascites fluid volume were measured. Averages ( x ± S.E.M.) were made of these two parameters and the percentage inhibitions [(1 - T/C) ×100] were calculated for each dose.

The subject of the next assay is MOLT-4 cells. Description: Light and transmission electron microscopy of apoptosis. The assay is classed as cell-based, Human. As to the method: Cell culture and treatment: Human T lymphoblast; acute lymphoblastic leukemia line MOLT-4 was procured from NCCS, Pune, India. The cells were cultured in RPMI-1640 medium supplemented with 10% FCS, 100 units penicillin and 100 µg streptomycin per ml. Cells were grown in CO2 incubator (SHEL-LAB, USA) at 37° C, 90% humidity and 5% CO2 gas environment and were treated during sub-confluent stage with Compound 3f dissolved in DMSO at the concentration of 1, 5 and 10µM while control cells received only the vehicle (DMSO < 0.5%).
Light and Transmission Electron Microscopy: MOLT-4 control, Compound 3f treated cells at different time intervals were washed in phosphate buffered saline, centrifuged at 1500 rpm for ten minutes and the pellets were divided into 1mm^3 pieces and fixed immediately in 2.5% glutaraldehyde in 0.1M phosphate buffer (pH 7.2) for 2 hr at 4°C, post-fixed with 1% OsO4 in the same buffer for 2 hr, dehydrated with acetone, cleared in propylene oxide and embedded in Epon-812^6 [Hayat, M. A. (1981) Principles and Techniques of Electron Microscopy. Biological Applications Vol. 1. Edward Arnold Publishers, London, U.K.] Semithin (1µm) sections were cut, stained with toluidine blue and studied under Olympus Research Microscope (VANOX). The photography was done using Olympus Digital Camera (C4000).
Ultrathin sections of silver colour (60-90 nm) were cut on a LKB ultramicrotome (Ultrotome-IV, mounted on copper grids and stained with uranyl acetate and lead citrate. The sections were viewed and photographed in a JEOL-100CXII electron microscope at 60 kV.
Detection of apoptosis in tissue sections. Cell Tissue Res. 301: 19-31] at different time intervals to study the mechanism of cell death. […] Compound 3f treated MOLT-4 cells, the condensation of the nuclear material, with a marked accumulation of densely stained chromatin was seen. In majority of the treated cells the chromatin was seen typically at the edge of the nucleus. This was accompanied by cell shrinkage and cytoplasmic vacuoles. The disintegration of the nucleus into smaller fragments was also seen (Fig. 7B). […]

A further assay concerns S-180 cells. As to the kind of experiment: 3H-thymidine and 3H-uridine incorporation in vitro (DNA and RNA synthesis).

In the case of `O=C1c2cccc3c([N+](=O)[O-])ccc(c23)C(=O)N1CCCCl` [Compound 3f, 6-Nitro-2-[3-(Chloropropyl)]-1H-benz[de]isoquinoline-1,3-dione], the Caspase-3 activity entry with caspase-3 was “maximum at 5 µg/ml at 12 hrs”. Further, the “early apoptotic cells (Annexin V^+/PI^-), LR” value in the assay with HL-60 cells (5 µM) is given as 16.4%; in the assay on HL-60 cells (10 µM), 11.5%. The entries for the “late apoptotic cells (Annexin V^+/PI^+), UR” value with HL-60 cells (5 µM) and in the assay on HL-60 cells (10 µM) were 31.5% and 81.0%, respectively. Further, the “total apoptotic cells (apoptotic cell population)” value with HL-60 cells (5 µM) is 47.9%; in the assay on HL-60 cells (10 µM), 92.5%. Besides, the “MST” value in assay [1] amounted to 34.0 days. Also, the “inhibition in S-180 tumor growth” value is given as “about 20%” with S-180 (19th day, after drug treatment on day 1-7) and 84% with S-180 (day 9, after drug treatment on day 1-7). Moreover, the “apoptotic cells by light microscopy” value in the assay with MOLT-4 cells (1µM) was “no apoptotic cells were observed”; in the assay with MOLT-4 cells (5µM, 24 - 48 hr) it was “only a-few apoptotic cells were observed”; in the assay on MOLT-4 cells (10µM, 36 hrs), “seen in majority of cells”. The inhibition at 8 µM in the assay on S-180 cells (Mus musculus, S-180, read-out: DNA synthesis inhibition (3H-thymidine uptake)) is 90%. For the same compound, the “RNA synthesis inhibition (3H-uridine uptake)” value in the assay with S-180 cells (S-180 cells, 8 µM, 1 hr incubation, with respect to control) was found to be 80%.

These data come from patent EP2118065B1, “Substituted 1H-benz[de]isoquinoline-1,3-diones” (priority 2007, dated 2008).
